Test results: patent US4220644A, “7-Acylamino-3-(substituted tetrazolyl thiomethyl) cephalosporins” (SmithKline Corporation, priority 1976, dated 1980)
In brackets after ≈: the same amount, converted by molar mass. Where two headings read alike, the source gives them in different places.

How the values were obtained:
E. coli HH 33779 = assay: MIC in vitro (Table 1), E. coli HH 33779; format: cell-based; details: Escherichia coli, HH33779, in vitro, E. coli HH 33779; read-out: MIC
Excerpt: (§1) Compound names corresponding to numbers are given in the experimental section. For comparative purposes, data for cephamandole, which is 7-mandelamido-3-(1-methyltetrazol-5-ylthiomethyl)-3-cephem-4-carboxylic acid, is also given in Tables 1 and 2.

S. aureus SK 23390 = assay: MIC in vitro (Table 1), S. aureus SK 23390; format: cell-based
Excerpt: as §1

Serra. Marc. ATCC 13880 = assay: MIC in vitro (Table 1), Serra. Marc. ATCC 13880; format: cell-based
Excerpt: as §1

Pseudo. sp. HH 63 = assay: MIC in vitro (Table 1), Pseudo. sp. HH 63; format: cell-based
Excerpt: (§2) The compounds of Formula I have antibacterial activity against both Gram-positive and Gram-negative organisms. […] Compound names corresponding to numbers are given in the experimental section. For comparative purposes, data for cephamandole, which is 7-mandelamido-3-(1-methyltetrazol-5-ylthiomethyl)-3-cephem-4-carboxylic acid, is also given in Tables 1 and 2.

Kleb. pneumo. 4200 = assay: In vivo mouse protection (Table 2), Kleb. pneumo. 4200
Excerpt: as §1

Shigella HH 117 = assay: MIC in vitro (Table 1), Shigella HH 117; format: cell-based
Excerpt: as §2

Kleb. pneumo. SK 1200 = assay: MIC in vitro (Table 1), Kleb. pneumo. SK 1200; format: cell-based
Excerpt: as §1

Entero. cloacae HH 31254 = assay: MIC in vitro (Table 1), Entero. cloacae HH 31254; format: cell-based; details: Enterobacter cloacae
Excerpt: as §1

S. villaluz = assay: MIC in vitro (Table 1), S. villaluz; format: cell-based
Excerpt: as §2

Strep. Faecalis HH 34358 = assay: MIC in vitro (Table 1), Strep. Faecalis HH 34358; format: cell-based; details: Enterococcus faecalis
Excerpt: as §1

Kleb. pneumo. SK 4200 = assay: MIC in vitro (Table 1), Kleb. pneumo. SK 4200; format: cell-based; details: in vitro, Kleb. pneumo. SK 4200; read-out: MIC
Excerpt: as §1

E. coli 12140 = assay: In vivo mouse protection (Table 2), E. coli 12140
Excerpt: as §1

E. coli SK 12140 = assay: MIC in vitro (Table 1), E. coli SK 12140; format: cell-based; details: Escherichia coli, SK12140, in vitro
Excerpt: as §1

Salmonella ATCC 12176 = assay: MIC in vitro (Table 1), Salmonella ATCC 12176; format: cell-based
Excerpt: as §2

[1] = test system: Entero. aerog. ATCC 13048; assay: MIC in vitro (Table 1), Entero. aerog. ATCC 13048; format: cell-based
Excerpt: as §1

S. aureus HH 127 = assay: MIC in vitro (Table 1), S. aureus HH 127; format: cell-based; details: Staphylococcus aureus
Excerpt: as §1

Proteus morgani 179 = assay: MIC in vitro (Table 1), Proteus morgani 179; format: cell-based
Excerpt: as §1

[2] = in vitro, Serra. Marc. ATCC 13880, read-out: MIC
[3] = in vitro, Pseudo. sp. HH 63, read-out: MIC
[4] = Shigella, HH117, in vitro, read-out: MIC
[5] = HH31254, in vitro, Entero. cloacae HH 31254, read-out: MIC
[6] = in vitro, Strep. Faecalis HH 34358, read-out: MIC
[7] = Escherichia coli, 12140, po, E. coli 12140, p.o.
[8] = Escherichia coli, 12140, sc, E. coli 12140, s.c.
[9] = Salmonella, ATCC12176, in vitro, read-out: MIC
[10] = in vitro, Entero. aerog. ATCC 13048, read-out: MIC
[11] = HH127, in vitro, S. aureus HH 127, read-out: MIC
[12] = Staphylococcus aureus, SK23390, in vitro, S. aureus SK 23390, read-out: MIC

| SMILES | MIC (E. coli HH 33779) [µg/mL] | MIC (S. aureus SK 23390; Staphylococcus aureus, SK23390) [µg/mL] | MIC (Serra. Marc. ATCC 13880; [2]) [µg/mL] | MIC (Pseudo. sp. HH 63; [3]) [µg/mL] | ED50 (Kleb. pneumo. 4200; po, Kleb. pneumo. 4200, p.o.) [mg/kg] | ED50 (Kleb. pneumo. 4200; sc, Kleb. pneumo. 4200, s.c.) [mg/kg] | MIC (Shigella HH 117; [4]) [µg/mL] | MIC (Kleb. pneumo. SK 1200; read-out: MIC) [µg/mL] | MIC (Entero. cloacae HH 31254; [5]) [µg/mL] | MIC (S. villaluz; read-out: MIC) [µg/mL] | MIC (Strep. Faecalis HH 34358; [6]) [µg/mL] | MIC (Kleb. pneumo. SK 4200) [µg/mL] | ED50 (E. coli 12140; [7]) [mg/kg] | ED50 (E. coli 12140; [8]) [mg/kg] | MIC (E. coli SK 12140; read-out: MIC) [µg/mL] | MIC (Salmonella ATCC 12176; [9]) [µg/mL] | MIC [1, 10] [µg/mL] | MIC (S. aureus HH 127; [11]) [µg/mL] | MIC (S. aureus SK 23390; [12]) [µg/mL] | MIC (Proteus morgani 179; read-out: MIC) [µg/mL] | also measured |
| --- | --- | --- | --- | --- | --- | --- | --- | --- | --- | --- | --- | --- | --- | --- | --- | --- | --- | --- | --- | --- | --- |
| CN(C)C(=O)Cn1nnnc1SCC1=C(C(=O)O)N2C(=O)C(NC(=O)[C@H](O)c3ccccc3)C2SC1 (stereo partly drawn) [IV, 7-D-Mandelamido-3-(1-N,N-dimethylcarbamoylmethyltetrazol-5-ylthiomethyl)-3-cephem-4-carboxylic acid] | 6.3 (≈ 11.8 µM) | 0.8 (≈ 1.5 µM) | 100 (≈ 187 µM) | > 200 | 168 | 7.5 | 0.8 (≈ 1.5 µM) | 1.6 (≈ 3 µM) | 1.6 (≈ 3 µM) | 50 (≈ 93.7 µM) | 25 (≈ 46.9 µM) | 3.1 (≈ 5.81 µM) | 168 | 2.5 | 3.1 (≈ 5.81 µM) | 3.1 (≈ 5.81 µM) | 6.3 (≈ 11.8 µM) | 1.6 (≈ 3 µM) | – | – | – |
| NC(=O)Cn1nnnc1SCC1=C(C(=O)O)N2C(=O)C(NC(=O)[C@H](O)c3ccccc3)[C@H]2SC1 (stereo partly drawn) [V, 7-D-Mandelamido-3-(1-carbamoylmethyltetrazol-5-ylthiomethyl)-3-cephem-4-carboxylic acid] | 1.6 (≈ 3.16 µM) | – | 12.5 (≈ 24.7 µM) | > 200 | 21.2 | 1.3 | 0.2 (≈ 0.396 µM) | 0.8 (≈ 1.58 µM) | 0.8 (≈ 1.58 µM) | 25 (≈ 49.5 µM) | 25 (≈ 49.5 µM) | 1.6 (≈ 3.16 µM) | 50 | 1.56 | 0.8 (≈ 1.58 µM) | 0.8 (≈ 1.58 µM) | 1.6 (≈ 3.16 µM) | 1.6 (≈ 3.16 µM) | 3.1 (≈ 6.13 µM) | 3.1 (≈ 6.13 µM) | MIC (S. aureus SK 23390; in vitro, S. aureus SK 23390): 1.6 µg/mL (≈ 3.16 µM); MIC (Shigella HH 117; in vitro): 0.4 µg/mL (≈ 0.791 µM); MIC (Kleb. pneumo. SK 1200): 0.4 µg/mL (≈ 0.791 µM); MIC (Entero. cloacae HH 31254; HH31254): 0.4 µg/mL (≈ 0.791 µM); MIC (Proteus morgani 179): 1.6 µg/mL (≈ 3.16 µM); MIC (Salmonella ATCC 12176; in vitro): 0.4 µg/mL (≈ 0.791 µM) |
| NC(=O)CCCn1nnnc1SCC1=C(C(=O)O)N2C(=O)C(NC(=O)[C@H](O)c3ccccc3)[C@H]2SC1 (stereo partly drawn) [XI, 7-D-Mandelamido-3-[1-(3-carbamoylpropyl)tetrazol-5-ylthiomethyl]-3-cephem-4-carboxylic acid] | 3.1 (≈ 5.81 µM) | – | – | > 200 | 25 | 0.37 | 0.4 (≈ 0.75 µM) | 0.8 (≈ 1.5 µM) | – | 50 (≈ 93.7 µM) | 50 (≈ 93.7 µM) | 0.8 (≈ 1.5 µM) | > 50 | 1.56 | – | 0.8 (≈ 1.5 µM) | – | – | 3.1 (≈ 5.81 µM) | 0.8 (≈ 1.5 µM) | MIC (Serra. Marc. ATCC 13880): 25 µg/mL (≈ 46.9 µM); MIC (Entero. cloacae HH 31254; HH31254): 3.1 µg/mL (≈ 5.81 µM); MIC (E. coli SK 12140): 0.4 µg/mL (≈ 0.75 µM); MIC [1]: 3.1 µg/mL (≈ 5.81 µM); MIC (S. aureus HH 127; HH127): 3.1 µg/mL (≈ 5.81 µM) |
| NC(=O)CCn1nnnc1SCC1=C(C(=O)O)N2C(=O)C(NC(=O)CSC(F)(F)F)[C@H]2SC1 (some centres unmarked) [XVI, 7-Trifluoromethylmercaptoacetamido-3-[1-(2-carbamoylethyl)tetrazol-5-ylthiomethyl]-3-cephem-4-carboxylic acid] | 1.6 (≈ 3.03 µM) | 0.8 (≈ 1.52 µM) | – | > 200 | – | 0.54 | 0.2 (≈ 0.379 µM) | – | 0.4 (≈ 0.758 µM) | 6.3 (≈ 11.9 µM) | – | 0.8 (≈ 1.52 µM) | 25 | 0.78 | – | 0.4 (≈ 0.758 µM) | 1.6 (≈ 3.03 µM) | 0.4 (≈ 0.758 µM) | – | 12.5 (≈ 23.7 µM) | MIC (Kleb. pneumo. SK 1200): 0.4 µg/mL (≈ 0.758 µM); MIC (Strep. Faecalis HH 34358): 12.5 µg/mL (≈ 23.7 µM); MIC (E. coli SK 12140): 0.4 µg/mL (≈ 0.758 µM) |
| Cn1nnnc1SCC1=C(C(=O)O)N2C(=O)C(NC(=O)C(O)c3ccccc3)[C@H]2SC1 (some centres unmarked) [cephamandole, 7-mandelamido-3-(1-methyltetrazol-5-ylthiomethyl)-3-cephem-4-carboxylic acid, reference compound] | 2.6 (≈ 5.62 µM) | – | 13 (≈ 28.1 µM) | – | > 50 | 0.96 | – | 0.6 (≈ 1.3 µM) | 0.7 (≈ 1.51 µM) | – | 2.3 (≈ 4.97 µM) | 1.1 (≈ 2.38 µM) | 28 | < 2 | 1.1 (≈ 2.38 µM) | – | 2.9 (≈ 6.27 µM) | 1 (≈ 2.16 µM) | 0.6 (≈ 1.3 µM) | 1.3 (≈ 2.81 µM) | MIC (Pseudo. sp. HH 63): > 200 µg/mL; MIC (Shigella HH 117; Shigella, HH117, in vitro): 0.2 µg/mL (≈ 0.432 µM); MIC (S. villaluz): 8 µg/mL (≈ 17.3 µM); MIC (Salmonella ATCC 12176; Salmonella, ATCC12176, in vitro): 0.6 µg/mL (≈ 1.3 µM) |
